According to US20210246109A1, “POTENT AND SELECTIVE INHIBITORS OF CYTOCHROME P450” (University of Kentucky Research Foundation, priority 2020, published 2021):
Several values for one entry are separate records, joined by “and”; a condition that tells them apart may be missing. Identical values can stand only once. Like-named read-outs stand apart in the source and are kept apart here.

Legend:
[1] = biological target: T1, CYP1B1 (Homo sapiens, UniProt Q16678); experiment: EROD assay in inducible CYP1B1 cell line; assay type: cell-based
T1 construct: expressed in transfected cells
T1 sequence (Q16678 1-543): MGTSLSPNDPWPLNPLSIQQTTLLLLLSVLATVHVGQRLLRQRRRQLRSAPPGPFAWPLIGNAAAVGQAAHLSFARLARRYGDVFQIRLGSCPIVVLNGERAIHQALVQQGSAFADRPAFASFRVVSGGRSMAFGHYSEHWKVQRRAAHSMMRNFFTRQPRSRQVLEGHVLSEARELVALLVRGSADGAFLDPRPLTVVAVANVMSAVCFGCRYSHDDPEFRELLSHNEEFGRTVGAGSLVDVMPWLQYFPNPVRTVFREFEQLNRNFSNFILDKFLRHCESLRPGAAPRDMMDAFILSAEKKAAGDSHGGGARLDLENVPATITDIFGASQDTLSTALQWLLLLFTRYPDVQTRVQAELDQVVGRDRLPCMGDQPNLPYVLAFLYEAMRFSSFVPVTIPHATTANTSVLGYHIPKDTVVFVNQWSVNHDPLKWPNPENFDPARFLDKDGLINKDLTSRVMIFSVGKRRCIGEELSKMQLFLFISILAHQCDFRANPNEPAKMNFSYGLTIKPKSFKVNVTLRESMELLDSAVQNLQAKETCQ
Protocol: (§1) The activity of the inhibitors was assessed in a novel cell based assay generated for the purpose of this project. Enzymatic turnover of CYP1B1 was measured using the ethoxy-resorufin-O-deethylase (EROD) assay with the fluorescent substrate, resorufin ethyl ether. Cell lines were generated where the gene for CYP1B1 alone or CYP1B1 and cytochrome P450 reductase (CPR) were both under the control of an inducible promoter. A cell line was generated for counter screening where the gene for CYP1A1 was used. CYP1A1 is the closest family member to CYP1B1.

[2] = biological target: T2, CYP1A1 (Homo sapiens, UniProt P04798); experiment: EROD assay in CYP1A1 counter-screen cell line; assay type: cell-based
T2 construct: expressed in transfected cells
T2 sequence (P04798 1-512): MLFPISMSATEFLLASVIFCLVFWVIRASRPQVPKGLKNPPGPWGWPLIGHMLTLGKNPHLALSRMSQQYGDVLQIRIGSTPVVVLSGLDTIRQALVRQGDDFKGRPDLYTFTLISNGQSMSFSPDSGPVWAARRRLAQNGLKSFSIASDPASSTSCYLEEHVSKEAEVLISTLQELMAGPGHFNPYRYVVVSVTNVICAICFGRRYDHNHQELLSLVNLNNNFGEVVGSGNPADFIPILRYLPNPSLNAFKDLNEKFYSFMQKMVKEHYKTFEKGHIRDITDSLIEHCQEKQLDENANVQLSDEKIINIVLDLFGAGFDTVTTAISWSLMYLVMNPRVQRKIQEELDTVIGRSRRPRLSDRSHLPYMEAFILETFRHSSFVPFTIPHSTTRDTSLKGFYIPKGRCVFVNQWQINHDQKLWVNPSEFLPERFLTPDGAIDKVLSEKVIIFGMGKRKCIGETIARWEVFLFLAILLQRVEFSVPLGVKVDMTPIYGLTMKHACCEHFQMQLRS
Protocol: as §1

[3] = biological target: T3, pooled human liver microsomes (pHLMs) (Homo sapiens, UniProt P05177); experiment: EROD counterscreen in pooled human liver microsomes; assay type: biochemical; conditions: human, microsomes
T3 sequence (P05177 2-516): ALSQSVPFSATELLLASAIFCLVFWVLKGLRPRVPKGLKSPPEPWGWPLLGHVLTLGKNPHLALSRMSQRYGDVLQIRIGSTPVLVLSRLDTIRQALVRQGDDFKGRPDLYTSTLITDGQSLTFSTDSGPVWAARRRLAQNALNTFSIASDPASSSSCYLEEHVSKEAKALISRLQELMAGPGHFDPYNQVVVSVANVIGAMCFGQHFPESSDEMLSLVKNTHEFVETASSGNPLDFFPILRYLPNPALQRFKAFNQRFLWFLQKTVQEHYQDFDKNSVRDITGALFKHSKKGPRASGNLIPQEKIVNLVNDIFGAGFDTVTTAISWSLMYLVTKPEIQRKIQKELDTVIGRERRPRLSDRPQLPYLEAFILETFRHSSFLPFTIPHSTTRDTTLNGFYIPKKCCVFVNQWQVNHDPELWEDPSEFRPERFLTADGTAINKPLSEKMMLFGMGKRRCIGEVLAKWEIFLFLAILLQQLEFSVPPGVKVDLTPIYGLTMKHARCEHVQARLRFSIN
Source text: Human liver microsomes were used as a counterscreen to experimentally determine the magnitude of inhibitor selectivity.

[4] = Cytotoxicity, resazurin, 72 hours after compound addition; assay type: cell-based; conditions: human, HEK cells; Table 1; 72 hours, resazurin; read-out: Cytotoxicity IC50
Protocol: Cytotoxicity was assessed at 72 hours after compound addition using resazurin. The compounds that function as selective 1B1 inhibitors had no effect on cell health. This is an essential feature for any chemopreventative agent or molecules intended to block the detrimental action of an enzyme.

[5] = system: MCF7 tumor spheroids; assay type: cell-based; conditions: 547 0.5 μM with cisplatin 100 μM; CYP1B1 induced with benzo[a]pyrene
Source text: 510 is a control compound that lacks a coordinating group. […] All other conditions are following CYP1B1 induction with benzo[a]pyrene. Spheroid shown in inset.

[6] = biological target: T1, CYP1B1; experiment: Wash out experiment (FIG. 2B); assay type: cell-based
Source text: (§2) FIG. 2A includes a dose response of 547 in EROD assay in CYP1B1 cell line (blue) vs. 1A1 cell line (black). […] 510 is a control compound that lacks a coordinating group. […] All other conditions are following CYP1B1 induction with benzo[a]pyrene. Spheroid shown in inset.

[7] = biological target: T1, CYP1B1; experiment: CYP1B1 degradation on binding (FIG. 2C); assay type: cell-based; conditions: 0.1 μM
Source text: as §2

SMILES: N#CCOc1ccc(-c2nc(OCC#N)c3ccccc3n2)cc1 [GL547]
- IC50 ([1]; Table 1, read-out: CYP1B1 IC50): 24 pM
- IC50 ([1]; Table 3, read-out: IC50 1B1): < 250 pM
- activity of CYP1A1 over 24 h ([2]; 1 μM, 24 h, FIG. 2D): no loss in activity
- IC50 ([2]; Table 1, read-out: CYP1A1 IC50): 1.4 µM
- IC50 ([2]; Table 3, read-out: IC50 1A1): 3.73 µM and 2.69 µM
- IC50 ([3]; Table 1, read-out: hLM IC50): 4 µM
- IC50 ([3]; Table 3, read-out: IC50 pHLM): 3 µM
- IC50 at 72 h [4]: > 10 µM
- increase in cell death [5]: 75%
- time CYP activity is suppressed after wash out [6]: > 10 h
- effect of binding on CYP1B1 protein [7]: causes degradation of CYP1B1
